Data reported in patent US20250000868A1, “USE OF ADENOSINE A2B RECEPTOR AS TARGET IN DRUGS FOR PREVENTION AND/OR TREATMENT OF PRURITUS” (The Fourth Affiliated Hospital, ZJU, priority 2023, published 2025).
Entries after “also recorded” stand apart in the source; their conditions may differ.

Columns and labels:
[1] = biological target: T1, adenosine A2B receptor (Mus musculus, UniProt Q60614); experiment: Histamine-induced scratching behavioral experiment; assay type: in vivo; details: for number of histamine-induced scratches: within 30 min before histamine 250 μg/50 μL s.c. neck, scratches recorded within 30 min
T1 construct: from tissue; host or cells: living mouse; intrathecal dosing, receptor expressed in dorsal root ganglion neurons
T1 sequence (Q60614 1-332): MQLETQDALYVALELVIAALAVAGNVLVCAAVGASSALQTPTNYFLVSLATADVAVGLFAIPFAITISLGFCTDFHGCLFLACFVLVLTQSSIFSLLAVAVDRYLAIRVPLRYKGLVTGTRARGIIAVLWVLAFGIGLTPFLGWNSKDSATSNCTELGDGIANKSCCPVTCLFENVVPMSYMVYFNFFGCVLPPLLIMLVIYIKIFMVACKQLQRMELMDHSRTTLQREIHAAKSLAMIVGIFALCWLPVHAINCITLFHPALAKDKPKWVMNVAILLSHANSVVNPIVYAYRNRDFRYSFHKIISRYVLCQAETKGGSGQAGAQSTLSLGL
Procedure: (§1) Refer to the prior art (Jang et al., 2015) for scratching behavior. The specific operation method was as follows: each mouse neck hair was shaved two days before the experiment, and the mouse was housed in a transparent organic plastic chamber to receive acclimatization training for two consecutive days, at least 1 h a day. Adjacent transparent plastic chambers were separated by a piece of white paper to eliminate mutual interference between mice. On the day of the experiment, histamine (250 μg/50 μL) was subcutaneously injected into the mouse neck and the mice were immediately placed in the transparent plastic chamber to record scratching behaviors within 30 min using a camera. One effective scratch was defined as follows: a mouse lifted its hind leg to scratch the skin at the […] injection site and put the hind leg down, and despite the number of scratches in the interval between lifting the hind leg and putting it down, an effective scratching behavior was considered. To evaluate the antipruritic effect of PSB-603, the mice received an intrathecal injection of PSB-603 (the administration dose was 10 μL, and the dosing concentration was 1 or 10 μM) within 30 min before histamine injection.
(§2) Using a pharmacological method, the adenosine A2B receptor activity is blocked by intrathecal injection of selective adenosine A2B receptor antagonist PSB-603. […] Moreover, alleviating the effect of PSB-603 on scratch is related to the dose. […] Therefore, inhibition of the adenosine A2B receptor is an effective way to treat pruritus.

[2] = biological target: T1, adenosine A2B receptor; experiment: Chloroquine-induced scratching behavioral experiment; assay type: in vivo; details: for number of chloroquine-induced scratches: within 30 min before chloroquine 200 μg/50 μL s.c. neck, scratches recorded within 30 min
Procedure: as §1, with “the experiment, chloroquine (200 μg/50 μL)” for “the experiment, histamine (250 μg/50 μL)”, “concentration was 1, 10 or 20” for “concentration was 1 or 10”, “10 or 20 μM) within” for “1 or 10 μM) within”, “min before chloroquine injection.” for “min before histamine injection.”
as §2

[3] = PSB-603 intrathecal 10 μL at 10 μM

SMILES: CCCn1c(=O)[nH]c2nc(-c3ccc(S(=O)(=O)N4CCN(c5ccc(Cl)cc5)CC4)cc3)[nH]c2c1=O [PSB-603]
- number of histamine-induced scratches [1, 3]: reduces the number of histamine-induced scratches
- number of histamine-induced scratches ([1]; PSB-603 intrathecal 10 μL at dose of 1 μM): the number of animal scratches cannot be reduced
- histamine-induced scratching behaviors, overall effect ([1]; intrathecal injection of PSB-603 in advance, 1 or 10 μM, FIG. 3C): dose-dependent inhibition; also recorded: can effectively prevent histamine-induced scratching behaviors
- number of chloroquine-induced scratches [2, 3]: reduces the number of chloroquine-induced scratches
- number of chloroquine-induced scratches ([2]; PSB-603 intrathecal 10 μL at 20 μM): reduces the number of chloroquine-induced scratches
- chloroquine-induced scratching behaviors, overall effect ([2]; intrathecal injection of PSB-603 in advance, 1, 10 or 20 μM, FIG. 4): dose-dependent inhibition; also recorded: can effectively prevent chloroquine-induced scratching behaviors
